Source: US20140128352A1, “COMPOUNDS AND METHODS FOR MODULATING MITOCHONDRIAL METABOLISM AND REACTIVE OXYGEN SPECIES PRODUCTION” (Buck Institute for Research on Aging, priority 2012, published 2014)
Like-named read-outs stand apart in the source and are kept apart here.

Tests used:
[1] = biological target: T1, flavin binding site of complex I (IF) (Rattus norvegicus, UniProt Q5XIH3); assay: High-throughput screen: ROS production from flavin binding site of complex I (IF); type: biochemical
T1 construct: freshly isolated muscle mitochondria were assayed; from tissue; host or cells: rat skeletal muscle mitochondria (Wistar, Harlan Laboratories)
T1 sequence (Q5XIH3 21-464 limits assumed, one chain of several): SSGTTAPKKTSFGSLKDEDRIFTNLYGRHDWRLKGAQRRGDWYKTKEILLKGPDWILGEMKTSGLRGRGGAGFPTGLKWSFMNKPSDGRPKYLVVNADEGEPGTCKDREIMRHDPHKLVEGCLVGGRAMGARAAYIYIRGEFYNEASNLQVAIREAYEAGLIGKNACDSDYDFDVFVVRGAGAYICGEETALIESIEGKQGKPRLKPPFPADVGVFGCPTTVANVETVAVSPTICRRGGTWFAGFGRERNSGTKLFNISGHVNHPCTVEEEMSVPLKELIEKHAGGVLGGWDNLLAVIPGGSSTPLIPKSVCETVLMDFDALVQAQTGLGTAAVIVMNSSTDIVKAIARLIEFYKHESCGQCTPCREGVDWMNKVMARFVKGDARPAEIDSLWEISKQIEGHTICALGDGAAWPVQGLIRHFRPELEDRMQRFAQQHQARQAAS
Description: Skeletal muscle mitochondria were isolated from 5-8 week old female Wistar rats (Harlan Laboratories). Minced muscle was homogenized in buffer containing bacterial protease Type VIII prior to differential centrifugation to separate mitochondria from other tissue components. Unless otherwise stated, freshly isolated muscle mitochondria were assayed in buffer containing 120 mM KCl, 5 mM HEPES, 1 mM EGTA, 0.3% (w/v) bovine serum albumin. Where indicated, CaCl2 was added to yield a final free concentration of 250 nM calcium at pH 7.0 at 37° C.
Master screening plates were prepared using a Biomek FX liquid handling workstation (Beckman) to transfer 1 μL of each compound into individual wells on 96-well storage plates (80 compounds per plate). […] Just prior to use, plates were brought to room temperature and diluted 300-fold with standard buffer (13.3X=33.3 μM). To monitor the performance of each assay throughout screening and to provide intra-plate normalization reference points, DMSO negative controls and known mitochondrial inhibitor positive controls were included on each Master compound plate.
Total amounts of superoxide and H2O2 production were determined fluorometrically as H2O2, without distinguishing between them, in the presence of exogenous superoxide dismutase (25 units/mL final), horseradish peroxidase (1 unit/mL final), and Amplex UltraRed (25 μM final) as described (Affourtit, C. et al. (2012) Measurement of proton leak and electron leak in isolated mitochondria. Methods Mol. Biol. 810: 165-82). Just prior to use, a bulk 3.3X solution was made in standard buffer and distributed into a 2 mL deep well 96-well transfer plate.
To assess the effects of a compound on ROS production from the flavin binding site of complex I (IF), Start Solution containing 5 mM glutamate, 5 mM malate and 4 μM rotenone was distributed into standard 96-well transfer plates. A Biomek FX workstation was programmed to dispense solutions into black 96-well assay plates. Solutions were dispensed to all assay plates in the following order: ROS Detection solution described in Example 3, Mitochondria solution described in Example 1 to a final concentration of 0.3 mg/ml, and Compound dilutions described in Example 2. Duplicate assay plates were made and each was initiated by the addition of 3.3X Start solution containing 5 mM glutamate, 5 mM malate and 4 μM rotenone. Plates were incubated in the dark at room temperature for 30-40 minutes before acquiring endpoint fluorescence using a Victor 3V plate reader (Perkin Elmer) equipped with 550/590 nm excitation/emission filters.
The fluorescence values in each well were scaled as the percent change from the intra-plate DMSO controls with the appropriate inhibitor positive controls defined as −100%. Following initial scaling, intra-plate normalized values were subjected to Tukey's two-way median polish to remove row and column dependent positional effects (Malo, N. et al. (2006) Statistical practice in high-throughput screening data analysis. Nat. Biotechnol. 24(2): 167-75).

[2] = biological target: T2, outer ubiquinone binding site of complex III (IIIQO) (Rattus norvegicus, UniProt P00159+P20788); assay: High-throughput screen: ROS production from outer ubiquinone binding site of complex III (IIIQO); type: biochemical
T2 construct: freshly isolated muscle mitochondria were assayed; from tissue; host or cells: rat skeletal muscle mitochondria (Wistar, Harlan Laboratories)

[3] = test system: mitochondrial membrane potential (ΔΨm); assay: Membrane potential (ΔΨm) counterscreen with TMRM; conditions: malate, nigericin
[4] = biological target: T3, succinate dehydrogenase/complex II (SDH) (Rattus norvegicus, UniProt P21913+Q641Z9+Q6PCT8+Q920L2); assay: High-throughput screen: ROS production from succinate dehydrogenase/complex II (SDH); type: biochemical; conditions: for inhibition at 2.5 µM / SDH: percent change in ROS from DMSO controls; for % Reduction in ROS Production (SDH): Table 5, 15 μM palmitoyl carnitine, 2.5 μM antimycin A, 2 μM myxothiazol, compounds 2.5 μM, percent change from DMSO
T3 construct: freshly isolated muscle mitochondria were assayed; from tissue; host or cells: rat skeletal muscle mitochondria (Wistar, Harlan Laboratories)
T3 sequence (Q920L2 35-656): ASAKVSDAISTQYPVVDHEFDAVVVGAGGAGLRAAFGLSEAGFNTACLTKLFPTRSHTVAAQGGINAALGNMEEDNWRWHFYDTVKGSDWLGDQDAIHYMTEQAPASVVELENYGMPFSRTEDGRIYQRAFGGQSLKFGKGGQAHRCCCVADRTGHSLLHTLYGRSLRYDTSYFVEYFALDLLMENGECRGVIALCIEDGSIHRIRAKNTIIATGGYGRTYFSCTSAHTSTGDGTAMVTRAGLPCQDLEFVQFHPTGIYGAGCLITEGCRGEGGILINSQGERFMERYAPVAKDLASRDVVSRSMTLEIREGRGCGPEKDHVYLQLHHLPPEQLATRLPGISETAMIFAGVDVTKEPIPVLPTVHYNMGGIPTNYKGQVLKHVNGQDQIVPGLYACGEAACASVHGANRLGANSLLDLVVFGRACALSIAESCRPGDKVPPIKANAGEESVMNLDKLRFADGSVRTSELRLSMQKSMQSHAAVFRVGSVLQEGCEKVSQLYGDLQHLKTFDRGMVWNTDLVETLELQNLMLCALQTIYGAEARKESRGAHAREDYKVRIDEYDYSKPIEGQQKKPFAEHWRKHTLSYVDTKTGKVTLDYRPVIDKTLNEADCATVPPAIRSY
T3 sequence (P21913 31-282): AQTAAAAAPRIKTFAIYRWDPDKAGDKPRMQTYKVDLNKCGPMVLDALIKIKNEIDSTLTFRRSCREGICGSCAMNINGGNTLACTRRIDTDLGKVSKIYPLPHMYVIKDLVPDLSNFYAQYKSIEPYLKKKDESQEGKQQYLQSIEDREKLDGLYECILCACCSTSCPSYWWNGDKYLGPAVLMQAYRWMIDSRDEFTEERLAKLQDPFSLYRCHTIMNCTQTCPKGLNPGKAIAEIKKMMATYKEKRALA
T3 sequence (Q641Z9 30-169 limits assumed): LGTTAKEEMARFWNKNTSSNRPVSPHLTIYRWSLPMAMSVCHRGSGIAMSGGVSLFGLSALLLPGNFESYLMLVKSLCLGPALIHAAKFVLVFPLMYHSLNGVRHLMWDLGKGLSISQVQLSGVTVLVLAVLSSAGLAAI
T3 sequence (Q6PCT8 57-159): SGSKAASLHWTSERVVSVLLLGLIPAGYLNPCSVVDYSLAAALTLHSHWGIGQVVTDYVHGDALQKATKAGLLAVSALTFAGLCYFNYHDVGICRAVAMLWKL

[5] = biological target: T4, glycerol-3-phosphate dehydrogenase (GPDH) (Rattus norvegicus, UniProt P35571); assay: High-throughput screen: ROS production from glycerol-3-phosphate dehydrogenase (GPDH); type: biochemical; design: inhibition: dose or concentration left out as unconfirmed; conditions: percent change in ROS from DMSO controls
T4 construct: The activity of GPDH in intact mitochondria (0.3 mg/mL) was measured; from tissue; host or cells: rat skeletal muscle mitochondria (Wistar, Harlan Laboratories)
T4 sequence (P35571 43-727): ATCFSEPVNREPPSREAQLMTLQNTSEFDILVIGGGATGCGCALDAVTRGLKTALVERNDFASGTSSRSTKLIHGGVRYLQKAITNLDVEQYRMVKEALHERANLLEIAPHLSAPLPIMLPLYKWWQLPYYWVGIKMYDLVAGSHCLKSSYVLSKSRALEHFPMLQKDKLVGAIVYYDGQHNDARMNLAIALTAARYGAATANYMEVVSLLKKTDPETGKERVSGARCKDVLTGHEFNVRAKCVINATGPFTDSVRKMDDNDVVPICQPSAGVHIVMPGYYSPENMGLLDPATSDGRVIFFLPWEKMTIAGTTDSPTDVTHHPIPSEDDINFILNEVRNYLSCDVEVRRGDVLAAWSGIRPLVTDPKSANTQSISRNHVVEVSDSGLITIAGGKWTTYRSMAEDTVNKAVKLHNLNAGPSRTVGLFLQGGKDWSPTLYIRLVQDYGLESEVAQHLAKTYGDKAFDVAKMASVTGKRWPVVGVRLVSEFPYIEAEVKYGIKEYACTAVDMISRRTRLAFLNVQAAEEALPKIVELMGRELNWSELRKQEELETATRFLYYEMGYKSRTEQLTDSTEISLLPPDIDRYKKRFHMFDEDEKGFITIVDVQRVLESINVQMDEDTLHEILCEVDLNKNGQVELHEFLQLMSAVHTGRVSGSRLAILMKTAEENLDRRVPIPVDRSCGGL

[6] = test system: ubiquinone binding site of complex I (IQ); assay: High-throughput screen: ROS production from ubiquinone binding site of complex I (IQ), isolated skeletal muscle mitochondria; type: biochemical, rat; conditions: for % Reduction in ROS production (IQ): Table 2, 5 mM succinate, compounds 2.5 μM, percent change from DMSO, positive control −100%; for IQ: percent change in ROS from DMSO controls
[7] = Table 7, percent change in ROS from DMSO controls, read-out: IF
[8] = Table 8, percent change in ROS from DMSO controls
[9] = Table 9, percent change in ROS from DMSO controls
[10] = Table 7, percent change in ROS from DMSO controls, read-out: IIIQO
[11] = Table 9, percent change in ROS from DMSO controls, read-out: IIIQo
[12] = Table 3, 5 mM glutamate, 5 mM malate, 4 μM rotenone, compounds 2.5 μM, percent change from DMSO, positive control −100%, read-out: % Reduction in ROS production (IF)
[13] = Table 7, percent change in ROS from DMSO controls
[14] = Table 8, percent change in ROS from DMSO controls, read-out: IF
[15] = Table 4, 5 mM succinate, 4 μM rotenone, 2.5 μM antimycin A, compounds 2.5 μM, percent change from DMSO, read-out: % Reduction in ROS production (IIIQO)
[16] = Table 8, percent change in ROS from DMSO controls, read-out: IIIQO

| SMILES | inhibition at 2.5 µM [1, 7] | IF [1, 8] | IF [1, 9] | inhibition at 2.5 µM [2, 10] | IIIQO [2, 8] | inhibition at 2.5 µM [2, 11] | ΔΨm ([3]; Table 8, glutamate) | ΔΨm ([3]; Table 9, glutamate) | inhibition at 2.5 µM ([4]; Table 7) | SDH ([4]; Table 8) | SDH ([4]; Table 9) | inhibition ([5]; Table 7) | GPDH ([5]; Table 8) | GPDH ([5]; Table 9) | % Reduction in ROS production (IQ) [6] | IQ ([6]; Table 7) | IQ ([6]; Table 8) | IQ ([6]; Table 9) | % Reduction in ROS Production (SDH) [4] | inhibition at 2.5 µM [1, 12] | other results |
| --- | --- | --- | --- | --- | --- | --- | --- | --- | --- | --- | --- | --- | --- | --- | --- | --- | --- | --- | --- | --- | --- |
| Cc1ccc(NS(=O)(=O)c2ccc(C3CCCCC3)cc2)cc1 [Compound 6] | -3.6% | 3.6 | 3.6 | 3.4% | −3.4 | 3.4% | 0.0 | 0.0 | 1.1% | −1.1 | −1.1 | 2.3% | −2.3 | −2.3 | −38.6% | −38.6 | −38.6 | −38.6 | – | – | – |
| COc1ccc(C2C(C#N)=C(N)Oc3c2c(=O)oc2ccccc32)cc1O (stereo not shown) [Compound 74] | -0.4% | 0.4 | 0.4 | 7.6% | −7.6 | 7.6% | 0.8 | 0.8 | 20.9% | −20.9 | −20.9 | 3.5% | −3.5 | −3.5 | – | −0.7 | −0.7 | −0.7 | −20.9% | – | – |
| CCN1CCN(C2CCC(C(C)(C)C)CC2)CC1 (stereo not shown) [Compound 22] | 22.1% | −22.1 | −22.1 | 6.2% | −6.2 | 6.2% | −0.9 | −0.9 | -5.5% | 5.5 | 5.5 | 2.6% | −2.6 | −2.6 | – | −0.4 | −0.4 | −0.4 | – | 22.1% | – |
| O=[N+]([O-])c1ccc(Oc2ccc(S(=O)(=O)Nc3ccc4c(c3)OCCO4)cc2)cc1 [Compound 85] | – | 0.5 | 0.5 | – | −0.8 | – | −0.9 | −0.9 | – | 3.6 | 3.6 | – | −3.3 | −3.3 | −50.6% | −50.6 | −50.6 | −50.6 | – | – | IF [1, 13]: 0.5; IIIQO [2, 13]: −0.8; IIIQO [2, 9]: −0.8; SDH ([4]; Table 7): 3.6; GPDH ([5]; Table 7): −3.3 |
| Oc1nnc(Cc2ccncc2)c2ccccc12 [Compound 72] | -2.6% | 2.6 | 2.6 | -5.4% | 5.4 | -5.4% | 1.0 | 1.0 | 27.4% | −27.4 | −27.4 | -1.7% | 1.7 | 1.7 | – | 0.4 | 0.4 | 0.4 | −27.4% | – | – |
| Clc1ccc(C(NC2CCN(Cc3ccccc3)CC2)c2ccccc2)cc1 (stereo not shown) [Compound 78] | – | – | – | – | – | – | −1 | – | – | – | – | – | – | – | – | – | 2 | – | – | 37% | inhibition at 2.5 µM [1, 14]: 37%; inhibition at 2.5 µM [2, 15]: 30%; inhibition at 2.5 µM [2, 16]: 30%; inhibition at 2.5 µM ([4]; Table 8): 5%; inhibition ([5]; Table 8): 6% |
| CN(C)c1ccc(C(=C2CN3CCC2CC3)c2ccc(N(C)C)cc2)cc1 [Compound 81] | – | – | – | – | – | – | −1 | – | – | – | – | – | – | – | – | – | 2 | – | – | – | inhibition at 2.5 µM [1, 14]: 49%; inhibition at 2.5 µM [2, 16]: 0%; inhibition at 2.5 µM ([4]; Table 8): 1%; inhibition ([5]; Table 8): 13% |
| CCSC1=C(C#N)C2(CCCC2)C(C#N)C(=O)N1 (stereo not shown) [Compound 2] | 7% | −7.0 | −7.0 | -1.9% | 1.9 | -1.9% | −3.4 | −3.4 | -2.6% | 2.6 | 2.6 | 0.1% | −0.1 | −0.1 | −52.5% | −52.5 | −52.5 | −52.5 | – | – | – |
| CCN(CC)CCN(CC)Cc1ccc(Cl)cc1Cl [Compound 25] | 19.7% | −19.7 | −19.7 | 3.3% | −3.3 | 3.3% | −0.4 | −0.4 | 0.1% | −0.1 | −0.1 | 2.5% | −2.5 | −2.5 | – | −0.6 | −0.6 | −0.6 | – | 19.7% | – |
| Clc1ccc(N2CCN(CC(c3ccccc3)c3ccccc3)CC2)cc1 [Compound 83] | – | – | – | – | – | – | 1 | – | – | – | – | – | – | – | – | – | 2 | – | −14% | – | inhibition at 2.5 µM [1, 14]: 1%; inhibition at 2.5 µM [2, 15]: 29%; inhibition at 2.5 µM [2, 16]: 29%; inhibition at 2.5 µM ([4]; Table 8): 14%; inhibition ([5]; Table 8): 3% |
